In patent US10765128B2, “Composition for prevention or treatment of metabolic syndrome or for antioxidation containing black bean leaf extracts and flavonol glysosides isolated therefrom as active ingredients” (KOREA RESEARCH INSTITUTE OF BIOSCIENCE AND BIOTECHNOLOGY, priority 2015, dated 2020):
Read-outs that look alike come from different tables or passages of the source.

Key:
[1] = target: α-glucosidase (EC 3.2.1.20, Baker Yeast) (Saccharomyces cerevisiae, UniProt P53341); experiment: α-glucosidase inhibitory activity (nitrophenol method); format: biochemical; conditions: sample concentration 100 μM
Description: Specifically, the α-glucosidase inhibitory activity was performed using the nitrophenol method as described by Kato, et al., (J. Med. Chem 48: 2036-2044, 2005) with slight modification. An accumulation amount was measured by the optical density of a chromophoric group of monosaccharides such as glucose, which was generated by hydrolysis of a substrate p-nitrophenyl-[…] (Sigma-Aldrich) by means of α-glucosidase (EC 3.2.1.20, Baker Yeast).
Fifty μl of a buffer solution (70 mM calcium phosphate, pH 6.8), 50 μl of a sample extract or a compound dissolved in 50% DMSO, and 50 μl of α-glucosidase (0.1 unit/ml) were injected into a 96-well plate (NUNC™ Co.) and a substrate (5 mM, p-nitrophenyl-α-D-glucopyranoside) was finally added therein, after which a resulting plate was reacted at 37° C. for 30 minutes, such that 2 M NaOH was added therein to finish a reaction thereof. An amount of a chromophoric group generated was measured at 405 nm by using a microplate reader (ANTHOS™ Co.) to calculate an inhibitory activity.

human recombinant DPP-IV = target: T1, human recombinant DPP-IV (Homo sapiens, UniProt P27487); experiment: DPP-4 inhibitory activity (Ala-Pro-AFC substrate, fluorometer); format: biochemical; conditions: for inhibition at 200 µM: read-out: DPP-4 Inhibitory Activity (%); for DPP-4 Inhibitory Activity (%): 200 µM
T1 construct: purchased ProSpec
Description: Particularly, the black soybean (Seoritae) leaf extract (100 μg/ml) and the flavonol glycoside compound (200 μM) were dissolved in DMSO to prepare a sample solution. Then, 10 μl of a human recombinant DPP-IV (ProSpec, the U.S.) at a concentration of 1 μg/ml, 78 μl of an incubation buffer solution (50 mM Tris, pH 7.5), and 2 μl of the sample solution prepared above were added to a 96-well microplate, after which 16 μl (a final concentration reached 40 μM) of a substrate alanine-proline-7-amino-4-trifluoromethyl-coumarin (Ala-Pro-AFC) (Enzyme System Product Co.) was added therein, and initiated the reaction. After a reaction progressed at a room temperature for 60 minutes, an amount of AFC, which was a product generated, was measured by using a fluorometer, and identified DPP4 inhibitory activities of the black soybean (Seoritae) leaf extract and the flavonol glycoside compounds by means of Equation 1. […] DPP-4Inhibitory activity (%)=100−(A/A1×100) [Equation 1]
A: AFC concentration of sample
A1: AFC concentration of a negative control group

MIN6 β-cells = experiment: insulin secretion in 30 mM glucose-induced MIN6 β-cells (ELISA insulin kit); format: cell-based, mouse; conditions: for activation at 100 µM: Mus musculus, MIN6, 0.5 h, sample concentration 100 μM, read-out: Increase (%) in Insulin Secretion Amount in 30 mM Glucose-induced MIN6 Pancreatic β-Cells; for increase in amount of insulin secretion relative to its aglycone: 100 μM, Formula 4 vs quercetin, Formula 7 vs isorhamnetin
Description: MIN6 β-cells, which is a mouse pancreatic. β-cell strain, was cultured in DMEM (Lonza Co.) containing 15% FBS (Gibco Co.), 100 units/ml penicillin, and 100 μg/ml streptomycin at 37° C. in a humid 5% CO2 incubator.
MIN6 cells were seeded into a 24-well plate (1×10^5 cells/well) and cultured at 37° C. in a humid 5% CO2 Incubator. In 48 hours later, the medium was first replaced with a DMEM without glucose contained therein, after which a resulting medium was left alone for 60 minutes, such that the black soybean (seoritae) leaf extract and the flavonol glycoside compounds, samples of the present invention, were treated at a certain concentration, into the DMEM with 30 mM glucose contained therein, thus being reacted for 30 minutes. A control group was one without a sample added therein under the same condition as described above, and the insulin secreted into the medium was measured by using an ELISA insulin kit (Alpco diagnostics). […]

[2] = tested on: LDL (low-density lipoprotein); experiment: LDL-antioxidant activity, Cu2+-induced LDL oxidation (TBARS method); format: biochemical; conditions: for IC50: read-out: LDL Oxidation Inhibitory Activity, IC50 value; for LDL Oxidation Inhibitory Activity: sample concentration 100 μM
From the text: Med. Chemn. Lett. 14: 2719-2723, 2004). Results thereof were shown in a following Table 9.

[3] = DPPH radical scavenging activity; conditions: sample concentration 50 μM
Description: Two mL of a DPP solution was mixed in 1 mL of a test substance solution, after which a resulting mixture was stirred well. An optical density was measured at 517 nm at an interval of 1 minute for 20 minutes by using an UV/Vis spectrophotometer to evaluate the degree of DPPH radical scavenging activity.

RAW264.7 cells = experiment: ROS accumulation inhibitory activity in LPS-stimulated RAW264.7 cells (DCFH2-DA); format: cell-based; conditions: Mus musculus, sample concentration 100 μM, LPS 1 μg/ml
Description: A test substance for each concentration was prepared with DMEM, after which the test substance was added by each 100 μL/well therein, thus being reacted for 2 hours. Then, the cells were stimulated for 18 hours with LPS (1 μg/ml) treatment, such that DCFH2-DA (2′,7′-dichlorofluorescein diacetate) was added therein at a final concentration of 15 μM, thus being reacted for 30 minutes. Once a reaction was finished, the cells were washed five times with PBS and which a fluorescence value of DCF was measured on a spectrofluorimeter (480/530, ex/em). (Hayakaya M. et. al., EMBO J., 22: 3356-3866, 2003).

T1 sequence (P27487 whole entry): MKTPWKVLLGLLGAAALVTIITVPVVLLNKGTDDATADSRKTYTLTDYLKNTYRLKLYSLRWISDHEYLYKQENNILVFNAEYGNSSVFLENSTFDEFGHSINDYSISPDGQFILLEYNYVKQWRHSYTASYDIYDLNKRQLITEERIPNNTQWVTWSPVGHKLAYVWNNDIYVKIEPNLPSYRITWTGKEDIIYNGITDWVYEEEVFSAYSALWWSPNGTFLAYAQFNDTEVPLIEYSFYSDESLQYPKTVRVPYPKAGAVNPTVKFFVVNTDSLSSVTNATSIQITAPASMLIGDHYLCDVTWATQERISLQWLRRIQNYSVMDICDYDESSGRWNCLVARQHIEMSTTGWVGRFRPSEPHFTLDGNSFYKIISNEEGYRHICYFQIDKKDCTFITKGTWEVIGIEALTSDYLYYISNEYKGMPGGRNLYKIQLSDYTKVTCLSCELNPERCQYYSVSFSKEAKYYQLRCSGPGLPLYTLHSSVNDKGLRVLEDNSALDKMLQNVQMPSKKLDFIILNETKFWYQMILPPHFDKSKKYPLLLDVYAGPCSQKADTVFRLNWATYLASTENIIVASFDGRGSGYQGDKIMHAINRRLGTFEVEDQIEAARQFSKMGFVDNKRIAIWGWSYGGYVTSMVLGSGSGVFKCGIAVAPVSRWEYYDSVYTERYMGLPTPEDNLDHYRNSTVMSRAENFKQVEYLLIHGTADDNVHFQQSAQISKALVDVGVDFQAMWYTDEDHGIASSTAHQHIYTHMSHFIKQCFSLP
Chain of α-glucosidase (EC 3.2.1.20, Baker Yeast) (P53341 whole entry): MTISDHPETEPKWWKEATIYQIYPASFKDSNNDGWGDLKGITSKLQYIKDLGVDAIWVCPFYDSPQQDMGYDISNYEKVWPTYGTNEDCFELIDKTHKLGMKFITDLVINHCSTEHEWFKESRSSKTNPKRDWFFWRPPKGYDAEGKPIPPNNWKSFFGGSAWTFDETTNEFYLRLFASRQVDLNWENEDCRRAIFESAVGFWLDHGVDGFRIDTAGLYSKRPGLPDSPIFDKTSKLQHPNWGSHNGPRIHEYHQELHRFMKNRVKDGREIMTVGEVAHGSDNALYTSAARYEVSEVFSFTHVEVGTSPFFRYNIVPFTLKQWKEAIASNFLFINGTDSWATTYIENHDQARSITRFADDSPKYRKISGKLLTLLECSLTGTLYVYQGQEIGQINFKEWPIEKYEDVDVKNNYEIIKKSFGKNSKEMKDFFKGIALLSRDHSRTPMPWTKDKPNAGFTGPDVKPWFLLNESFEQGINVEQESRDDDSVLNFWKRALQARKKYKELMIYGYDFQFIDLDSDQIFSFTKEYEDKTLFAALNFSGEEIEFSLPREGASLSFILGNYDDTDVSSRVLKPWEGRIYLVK

Structure (SMILES): CC1O[C@@H](OC2C(O)[C@@H](O)C(CO)O[C@H]2Oc2c(-c3ccc(O)c(O)c3)oc3cc(O)cc(O)c3c2=O)C(O)C(O)[C@H]1O (stereo partly drawn) [Formula 5, quercetin 3-O-(2-α-D-rhamnopyranosyl)-β-D-galactopyranoside]
- inhibition at 100 µM [1]: 17.6 ± 2.3%
- inhibition at 200 µM (human recombinant DPP-IV): 48.7 ± 0.4%
- activation at 100 µM (MIN6 β-cells): 24.3 ± 2.7%
- IC50 [2]: 400 nM
- DPPH Radical Scavenging Activity [3]: 85.9 ± 0.4%
- inhibition at 100 µM (RAW264.7 cells): 23.7 ± 1.4%

Structure (SMILES): C[C@@H]1O[C@@H](OC[C@H]2O[C@@H](Oc3c(-c4ccc(O)c(O)c4)oc4cc(O)cc(O)c4c3=O)[C@H](O[C@@H]3O[C@H](CO)[C@@H](O)[C@H](O)[C@H]3O)[C@@H](O)[C@@H]2O)[C@H](O)[C@H](O)[C@H]1O [Formula 2, quercetin 3-O-β-D-glucopyranosyl-(1→2)-[α-L-rhamnopyranosyl-(1→6)]-β-D-glucopyranoside]
- inhibition at 100 µM [1]: 8.7 ± 2%
- inhibition at 200 µM (human recombinant DPP-IV; sample concentration 200 μM): 42.2 ± 0.9%
- activation at 100 µM (MIN6 β-cells): 25.3 ± 3.3%
- IC50 [2]: 1900 nM
- DPPH Radical Scavenging Activity [3]: 52.0 ± 0.1%
- inhibition at 100 µM (RAW264.7 cells): 31.8 ± 1.7%

Structure (SMILES): O=c1c(O[C@@H]2OC(CO)[C@@H](O)C(O)C2O[C@@H]2OC(CO)[C@@H](O)C(O)C2O)c(-c2ccc(O)c(O)c2)oc2cc(O)cc(O)c12 (stereo partly drawn) [Formula 4, quercetin 3-O-(2-β-D-glucopyranosyl)-β-D-glucopyranoside]
- inhibition at 100 µM [1]: 23.4 ± 2.3%
- inhibition at 200 µM (human recombinant DPP-IV; sample concentration 200 μM): 42.5 ± 1.5%
- increase in amount of insulin secretion relative to its aglycone (MIN6 β-cells): twice
- activation at 100 µM (MIN6 β-cells): 63.6 ± 2.6%
- IC50 [2]: 2300 nM
- DPPH Radical Scavenging Activity [3]: 59.5 ± 0.5%
- inhibition at 100 µM (RAW264.7 cells): 26 ± 1.9%

Structure (SMILES): O=c1c(O[C@@H]2OC(CC[C@@H]3OC(O)[C@H](O)C(O)C3O)[C@H](O)C(O)C2O[C@@H]2OC(O)[C@H](O)C(O)C2O)c(-c2ccc(O)cc2)oc2cc(O)cc(O)c12 (some centres unmarked) [Comparative Example 3, reference compound]
- activation at 100 µM (MIN6 β-cells): ≤ 19%
- DPPH Radical Scavenging Activity [3]: 4.0 ± 0.6%

Structure (SMILES): O=c1c(O)c(-c2ccc(O)cc2)oc2cc(O)cc(O)c12 [Kaempferol, reference compound]
- activation at 100 µM (MIN6 β-cells): ≤ 19%

Structure (SMILES): O=c1c(O)c(-c2ccc(O)c(O)c2)oc2cc(O)cc(O)c12 [Quercetin, reference compound]
- DPP-4 Inhibitory Activity (%) (human recombinant DPP-IV; sample concentration 200 μM): 14.5 ± 1.5%
- DPP-4 Inhibitory Activity (%) (human recombinant DPP-IV; sample concentration 200 μM, listed as quercetin): 145%
- activation at 100 µM (MIN6 β-cells): 35.6 ± 3.4%

Structure (SMILES): COc1cc(-c2oc3cc(O)cc(O)c3c(=O)c2O)ccc1O [Isorhamnetin, reference compound]
- inhibition at 200 µM (human recombinant DPP-IV; sample concentration 200 μM): 21.6%
- activation at 100 µM (MIN6 β-cells): 26.6 ± 4.1%

Structure (SMILES): O=c1c(O[C@@H]2OC(CC[C@@H]3OC(O)[C@H](O)C(O)C3O)[C@H](O)C(O)C2O[C@@H]2OC(CO)[C@@H](O)C(O)C2O)c(-c2ccc(O)cc2)oc2cc(O)cc(O)c12 (some centres unmarked) [Comparative Example 2, reference compound]
- LDL Oxidation Inhibitory Activity [2]: 28.4%
- DPPH Radical Scavenging Activity [3]: 8.0 ± 0.7%

Structure (SMILES): COc1cc(-c2oc3cc(O)cc(O)c3c(=O)c2O[C@@H]2OC(CO)[C@H](O)C(O)C2O[C@@H]2OC(CO)[C@@H](O)C(O)C2O)ccc1O (stereo partly drawn) [Formula 6, isorhamnetin 3-O-(2-β-D-glucopyranosyl)-β-D-galactopyranoside]
- inhibition at 100 µM [1]: 26.2 ± 1.7%
- inhibition at 200 µM (human recombinant DPP-IV; sample concentration 200 μM): 39.4%
- activation at 100 µM (MIN6 β-cells): 38.5 ± 3.3%
- LDL Oxidation Inhibitory Activity [2]: 65.7%
- DPPH Radical Scavenging Activity [3]: 11.5 ± 0.5%
- inhibition at 100 µM (RAW264.7 cells): 58.8 ± 0.9%

Structure (SMILES): O=c1c(O[C@@H]2OC(CO)[C@H](O)C(O)C2O[C@@H]2OC(CO)[C@@H](O)C(O)C2O)c(-c2ccc(O)c(O)c2)oc2cc(O)cc(O)c12 (stereo partly drawn) [Formula 3, quercetin 3-O-(2-β-D-glucopyranosyl)-β-D-galactopyranoside]
- inhibition at 100 µM [1]: 63.9 ± 0.2%
- inhibition at 200 µM (human recombinant DPP-IV; sample concentration 200 μM): 46.7 ± 1.5%
- activation at 100 µM (MIN6 β-cells): 37.8 ± 5.4%
- IC50 [2]: 2100 nM
- DPPH Radical Scavenging Activity [3]: 64.8 ± 0.9%
- inhibition at 100 µM (RAW264.7 cells): 44.1 ± 2.8%

Structure (SMILES): C[C@@H]1O[C@@H](OC[C@H]2O[C@@H](Oc3c(-c4ccc(O)c(O)c4)oc4cc(O)cc(O)c4c3=O)[C@H](O[C@@H]3O[C@H](CO)[C@@H](O)[C@H](O)[C@H]3O)[C@@H](O)[C@H]2O)[C@H](O)[C@H](O)[C@H]1O [Formula 1, quercetin 3-O-β-D-glucopyranosyl-(1→2)-[α-L-rhamnopyranosyl-(1→6)]-β-D-galactopyranoside]
- inhibition at 100 µM [1]: 10.8 ± 0.8%
- inhibition at 200 µM (human recombinant DPP-IV; sample concentration 200 μM): 48.4 ± 1%
- activation at 100 µM (MIN6 β-cells): 2.1 ± 0.1%
- IC50 [2]: 1800 nM
- DPPH Radical Scavenging Activity [3]: 60.3 ± 1.4%
- inhibition at 100 µM (RAW264.7 cells): 37.3 ± 1.8%

Structure (SMILES): O=c1c(-c2ccc(O)cc2)coc2cc(O[C@@H]3O[C@H](CO)[C@@H](O)[C@H](O)[C@H]3O)cc(O)c12 [Comparative Example 4, Genistin, reference compound]
- LDL Oxidation Inhibitory Activity [2]: 41.3%
- DPPH Radical Scavenging Activity [3]: 3.4 ± 0.7%

Structure (SMILES): COc1cc(-c2oc3cc(O)cc(O)c3c(=O)c2O[C@@H]2OC(CO)[C@H](O)C(O)C2O[C@@H]2OC(C)[C@H](O)C(O)C2O)ccc1O (stereo partly drawn) [Formula 7, isorhamnetin 3-O-α-L-rhamnopyranosyl-(1→2)-β-D-galactopyranoside]
- inhibition at 100 µM [1]: 22.7 ± 0.9%
- inhibition at 200 µM (human recombinant DPP-IV; sample concentration 200 μM): 48.1%
- increase in amount of insulin secretion relative to its aglycone (MIN6 β-cells): four
- activation at 100 µM (MIN6 β-cells): 106 ± 5.1%
- LDL Oxidation Inhibitory Activity [2]: 55.7%
- DPPH Radical Scavenging Activity [3]: 7.5 ± 0.6%
- inhibition at 100 µM (RAW264.7 cells): 21.9 ± 0.6%
